Measured values as given in patent US9181161B2, “Use of dicyclohexylmethanol derivatives having antimicrobial properties” (MERCK PATENT GmbH, priority 2012, dated 2015).

Legend:
Assay type in all cases: cell-based
[1] = system: Staphylococcus epidermidis (ATCC 12228); experiment: Determination of the bacteriostatic action, microbe count after incubation; conditions: for Final microbe count: sample 2.0% in water/ethanol (12% of ethanol), mixed 1:1 with suspension, 35° C., 24 h or 48 h, initial count 1.6 × 10^4
Description: (§1) For sample preparation, substances I-1 and I-5 being investigated are homogeneously dispersed in an amount of 2.0% in a water/ethanol mixture (12% of ethanol) (=sample). A suspensions of Staphylococcus epidermidis (ATCC 12228) having an optical density of 1.0 in CASO broth (Merck 1.05459) is diluted 1:10000 with CASO broth. 500 μl of sample are added to […] of microorganism suspension, and the mixture is incubated at 35° C. for 24 h or 48 h. After the incubation, the test batches are diluted to −6 in 10 unit steps, and 0.1 ml of each is plated-out on CASO agar (Merck 1.05458) and incubated at 35° C. for 24 h.
(§2) In order to determine the initial microbe count, 0.1 ml of the bacteria suspension used are plated-out on CASO agar (Merck 1.05458) and incubated at 35° C. for 24 h.
(§3) The colonies are subsequently counted, and the microbe count per ml is determined compared with the negative control (12% of ethanol in water).
(§4) The concentrations indicated are the final use concentrations. In order to prepare the stock solution, double the final concentration are prepared in the solvent indicated. This is subsequently diluted 1:2 with the corresponding microbe suspension. In the case of Aspergillus brasiliensis, the microbe count determination is exceptionally carried out after 48 h, in the case of Malassezia furfur after 72 h.

[2] = system: Propionibacterium acnes (ATCC 6919); experiment: Microbe count after incubation, carried out in accordance with Example 1; conditions: for Δlog: t24 h vs t0; for Final microbe count: as Example 1, sample 2.0% in water/ethanol (12% of ethanol), initial count 8.3 × 10^4
Description: as §1, §2, §3
The experiment is carried out in accordance with Example 1. Instead of the action on Staphylococcus epidermidis, the action of substances I-1 and I-5 on the test microbe Propionibacterium acnes is investigated.
as §4

Aspergillus brasiliensis = experiment: Microbe count after incubation (Example 3); conditions: 1.0% final conc., H2O (12% of ethanol)
Description: as §1, §2, §3, §4

Candida albicans = experiment: Microbe count after incubation (Example 3); conditions: 1.0% final conc., H2O (12% of ethanol)
Description: as §1, §2, §3, §4

Corynebacterium xerosis = experiment: Microbe count after incubation (Example 3); conditions: 0.5% final conc., H2O
Description: as §1, §2, §3, §4

Malassezia furfur = experiment: Microbe count after incubation (Example 3); conditions: 1.0% final conc., H2O
Description: as §1, §2, §3, §4

Salmonella enterica = experiment: Microbe count after incubation (Example 3); conditions: 0.5% final conc., H2O
Description: as §1, §2, §3, §4

Staphylococcus aureus = experiment: Microbe count after incubation (Example 3); conditions: 1.0% final conc., H2O (12% of ethanol)
Description: as §1, §2, §3, §4

Row | Structure (SMILES) | Microbe count t24 h ([1]; 0.5% final conc., H2O (12% of ethanol), t0 1.6 × 10^4) | Δlog ([1]; 0.5% final conc., H2O (12% of ethanol), t24 h vs t0) | Final microbe count [1] | Microbe count t24 h ([2]; 0.25% final conc., H2O, t0 5.4 × 10^5) | Δlog ([2]; 0.25% final conc., H2O) | Microbe count t24 h ([2]; 0.5% final conc., H2O (12% of ethanol), t0 8.3 × 10^4) | Δlog ([2]; 0.5% final conc., H2O (12% of ethanol)) | Final microbe count [2] [CFU/ml] | Microbe count t24 h (Aspergillus brasiliensis; count after 48 h, t0 8.0 × 10^2) | Δlog (Aspergillus brasiliensis; count after 48 h vs t0) | Microbe count t24 h (Candida albicans; t0 6.0 × 10^3) | Δlog (Candida albicans; t24 h vs t0) | Microbe count t24 h (Corynebacterium xerosis; t0 1.0 × 10^6) | Δlog (Corynebacterium xerosis; t24 h vs t0) | Microbe count t24 h (Malassezia furfur; count after 72 h, t0 4.0 × 10^2) | Δlog (Malassezia furfur; count after 72 h vs t0) | Microbe count t24 h (Salmonella enterica; t0 1.0 × 10^6) | Δlog (Salmonella enterica; t24 h vs t0) | Microbe count t24 h (Staphylococcus aureus; t0 7.2 × 10^4) | Δlog (Staphylococcus aureus; t24 h vs t0)
1 | OC1CCC(C(O)C2CCCCC2)CC1 (stereo not shown) [Substance I-1, 4-(cyclohexylhydroxymethyl)cyclohexanol] | 7.4 × 10^3 | −0.34 | 7.4 × 10^3 CFU/ml | 2.4 × 10^5 | −0.35 | 0 | −4.92 | 0 | 0 | −2.90 | 0 | −3.78 | 1.3 × 10^6 | +0.11 | 0 | −2.60 | 5.1 × 10^6 | +0.71 | 0 | −4.86
2 | COC1CCC(C(O)C2CCCCC2)C(O)C1 (stereo not shown) [Substance I-5, 2-(cyclohexylhydroxymethyl)-5-methoxy-cyclohexanol] |  |  | 7.0 × 10^3 CFU/ml |  |  |  |  | 0 |  |  |  |  |  |  |  |  |  |  |  | 
